Laboratory results published in US5260210A, “Blood-brain barrier model” (priority 1990, dated 1993).
Where “and” joins values, the source holds several entries; their conditions need not be identical. Equal entries are not always repeated. Where two headings read alike, the source gives them in different places. Values belong to the molecule of their own block, whether it stands above or below them.

What was measured:
[1] = test system: bovine brain capillary endothelial cells; experiment: Transmonolayer (transendothelial cell) electrical resistance in the in vitro BBB model; conditions: for activity at 0.01 µM / activity at 0.03 µM / activity at 0.1 µM / activity at 0.2 µM: Bos taurus, Endothelial cell, read-out: Resistance (% of control); for effect of phosphodiesterase inhibitors on resistance: FIG. 7, Rolipram or RO-20-1724 17.5 μM, by 30 minutes, no other cyclic AMP elevating agents
Experimental: The degree of tightness of tight junctions can be also assessed by transcellular electrical resistance measurements. For transendothelial cell resistance measurements, cells were grown on a porous solid support, e.g., a filter or membrane attached to a holding device in order adequately to suspend the cellular monolayer, such as the Costar Transwell apparatus or the ICN Cellogen. […] Cells were maintained in a growth medium or physiological saline, and calomel electrodes on each of the endothelial cells are connected by a saturated KCl - 3% agar bridge. Current is passed between two Ag--AgCl electrodes and the voltage measured with a Keithly multimeter. Resistance is calculated from the change in voltage across the monolayer induced when a short current pulse (10-100 μamp) is applied. The resistance of the filter or membrane alone is subtracted. The resistance, multiplied by the surface area of the filter or membrane, yields the resistance in ohms-cm^2.
Bovine brain capillary endothelial cells were grown on polycarbonate filters in a conditioned growth medium containing either 5% or 10% PDHS. In controls, the growth medium contained 5% PDHS (.quadrature.) or 10% PDHS. […]
Bovine brain endothelial cells were dissociated and plated on tissue culture dishes in 50% MEM/FCS - 50% ADCM. […]
Bovine brain microvascular endothelial cells were isolated and grown on permeable filters in the BBB in vitro model of the invention. Cells were maintained in astrocyte-derived conditioned medium, but were not treated with agents that elevate cyclic AMP levels in such cells.
Resistance was then measured at various times.
The medium containing these cyclic AMP elevating agents was removed, and the cells were washed with fresh growth medium.

blood-brain barrier [2] = experiment: Brain uptake of ^3 H-sucrose and ^125 I-BSA after intracarotid infusion; assay type: in vivo
Experimental: Staurosporine was administered by intracarotid infusion. The transport of ^3 H-sucrose and ^125 I-BSA was then determined. The data in Table 7 represent the amount of radioactivity remaining in the brain after infusion and washout. An average of 3-4 animals was used in each category.

[3] = test system: Type III cyclic GMP-noninhibitable phosphodiesterase; experiment: Inhibition of cyclic AMP phosphodiesterase of brain microvascular endothelial cells
blood-brain barrier [4] = conditions: in vivo; cited from earlier work
[5] = Behavioral assay: opioid-induced analgesia, hot plate; assay type: in vivo, mouse; conditions: Table 9, enkephalin 20 mg/kg
Experimental: Morphine and the naturally occurring opioid peptides, endorphin and enkephalin, bind to μ opioid receptors in the brain and suppress the sensation of pain. […] Mice are placed on a surface uniformly heated to 55° C. The time it takes for the mouse to respond to the heat stimulus by licking its front or hind paws is measured. […] The latency is expressed as % analgesia. [formula] The purpose of these experiments is to test the ability of putative BBB openers to shift the morphine dose response curve to lower doses and thus have analgesic activity when delivered peripherally.

brain endothelial cells = experiment: Leukocyte binding to cultures of blood brain barrier endothelial cells; assay type: cell-based, bovine or human; conditions: Table 14; Jurkat T-cell; + TNFα; two values per cell
Experimental: When used to treat lymphocytes, the anti-β-1 hybridoma supernatant was used at a 1:2 dilution. The anti-α-4 antibody was purified by the manufacturer, and used at a 5 μg/ml concentration. The anti-β-2 was purified by the manufacturer, and used at 5 μg/ml. For treatment of lymphocytes, the lymphocytes were mixed with the above concentrations of antibody, and allowed to incubate on ice for a about 30 minutes prior to use. The cells were washed to remove unbound antibody, and resuspended in RPMI to a typical concentration of 10^7 cells/ml.
Bovine or human brain endothelial cells were maintained in accordance with the blood brain barrier model as described in the present specification. […]
In this manner, the endothelial cells were exposed to the agent on their ablumenal surface, as would be the typical situation during an inflammatory reaction in the brain. Immediately before the assay, the electrical resistance of the cultures was measured and the filters (supporting the endothelial cells) were washed at room temperature by dipping in three separate vats of D-MEM with 1% FBS and 20 mM Hepes (200 mls. each). […]
In the second method, the leukocytes were prelabeled with a radioactive tracer and the degree of binding was quantified by measuring the amount of radioactivity associated with the entire endothelial surface on the culture filter. […]

bovine endothelial cells [6] = experiment: Transport across high resistance monolayers of bovine endothelial cells on filters; assay type: in vitro ADME; conditions: FIG. 3; compared to cell-free filters
Excerpt: Still another means for assessing the tightness of junctions among endothelial cells in the blood-brain model of the invention is to compare the transport of a hydrophilic compound, e.g., sucrose, and a hydrophobic compound of similar size, e.g., chlorambucil, across filters with and without monolayered endothelial cells. When the transmonoloayer resistance is high, the transport of sucrose should be low compared to that of chlorambucil (or other hydrophobic compounds of similar size). Alternatively, when the resistance is high, the transport of sucrose should be much less (e.g., 50-fold or more) than across cell-free filters.

bovine endothelial cells [7] = conditions: leaky tight junctions; cited from earlier work
blood-brain barrier [8] = experiment: In vivo tracer experiment: brain uptake of ^3 H-sucrose and ^125 I-BSA after i.v. injection; design: species or system mouse; conditions: Example 11 text
Experimental: The test compound was delivered to a restrained, unanesthetized mouse (30-35 g) via the tail vein. […] Fifteen or sixty minutes after the injection, the animal, anesthetized with 2% Avertin, was perfused via venipuncture with phosphate buffered saline followed by fixative. The brain was removed immediately, the medulla, pons and hypothalamus excised and the remaining tissue homogenized by passsage through a 3 cc needle into a preweighed scintillation vial containing 1.5 ml Soluene (Packard). The vial was weighed to determine wet tissue weight. Ten ml of Inst-Gel (Packard) was added to each sample after overnight incubation at 75° C. The samples were counted for DPM by liquid scintillation spectrometry. Values are expressed as DPM/gm tissue. A minimum of four animals/group were used for each experiment. Data are expressed as the mean fold-increase which is derived by dividing the treatment value by the control value. Numbers in parenthesis represent the number of experiments carried out for the particular condition.

[9] = Table 7, Experiment 1, intracarotid infusion, 3-4 animals

enhancement of transmonolayer electrical resistance ([1]; brain capillary endothelial cells): over 8 fold
Molecule: C=C[C@@]1(C)CC(=O)[C@]2(O)[C@@]3(C)[C@@H](O)CCC(C)(C)[C@@H]3[C@H](O)[C@H](OC(C)=O)[C@@]2(C)O1 [Forskolin, forskolin]

Molecule: CN[C@@H]1C[C@H]2O[C@@](C)([C@@H]1OC)n1c3ccccc3c3c4c(c5c6ccccc6n2c5c31)C(=O)NC4 [Staurosporine]
radioactivity remaining in the brain, ^3 H-Sucrose (blood-brain barrier [2]): 8.7 × 10^3 DPM
radioactivity remaining in the brain, ^3 H-Sucrose (blood-brain barrier [2]; [9]): 24.3 × 10^3 DPM
radioactivity remaining in the brain, ^125 I-BSA (blood-brain barrier [2]; [9]): 835 DPM
radioactivity remaining in the brain, ^125 I-BSA (blood-brain barrier [2]; Table 7, Experiment 2, intracarotid infusion, 3-4 animals): 520 DPM
effect on entry of tracers into the brain (blood-brain barrier [2]; intracarotid infusion): enhanced entry into the brain of both small (sucrose) and large (BSA) molecules
activity at 0.01 µM ([1]; 1 h): 108%
activity at 0.03 µM ([1]; 1 h): 64%
activity at 0.1 µM ([1]; 1 h): 5.5%
activity at 0.01 µM ([1]; 2.5 h): 20%
activity at 0.03 µM ([1]; 2.5 h): 7.7%
activity at 0.1 µM ([1]; 2.5 h): 0%
activity at 0.01 µM ([1]; 24 h): 5.2%
activity at 0.03 µM ([1]; 24 h): 2.3%
activity at 0.1 µM ([1]; 24 h): 0%

Molecule: CCCCOc1cc(CC2CNC(=O)N2)ccc1OC (stereo not drawn) [RO-20-1724]
inhibition of phosphodiesterase [3]: inhibited
effect of phosphodiesterase inhibitors on resistance [1]: substantially higher

Molecule: CCCOc1ccccc1-c1nc2nn[nH]c2c(=O)[nH]1 [zaprinast]
effect of phosphodiesterase inhibitors on resistance [1]: ineffective

Molecule: COc1ccc(C2CNC(=O)C2)cc1OC1CCCC1 (stereo not drawn) [Rolipram]
inhibition of phosphodiesterase [3]: inhibited
effect of phosphodiesterase inhibitors on resistance [1]: substantially higher

Molecule: Cc1[nH]c(=O)c(C#N)cc1-c1ccncc1 [milrinone]
effect of phosphodiesterase inhibitors on resistance [1]: ineffective

Molecule: N[C@@H](Cc1ccc(O)c(O)c1)C(=O)O [L-DOPA]
penetration into the brain / BBB crossing (blood-brain barrier [4]): can cross the BBB

Molecule: CC(C)C[C@H](NC(=O)[C@H](Cc1ccccc1)NC(=O)CNC(=O)CNC(=O)[C@@H](N)Cc1ccc(O)cc1)C(=O)O [Enkephalin]
penetration into the brain / BBB crossing (blood-brain barrier [4]): does not penetrate significantly into the brain
Percent Analgesia ([5]; Experiment 1): 2.8%
Percent Analgesia ([5]; Experiment 2): 6.4%

Molecule: Nc1ncnc2c1nc(Sc1ccc(Cl)cc1)n2[C@@H]1O[C@@H]2COP(=O)(O)O[C@H]2[C@H]1O [cyclic AMP analogue, 8-(4-chlorophenylthio) cyclic AMP]
effect on transmonolayer electrical resistance ([1]; Example 1, FIG. 1, 250 μM, 5% PDHS): greatly increased transmonolayer electrical resistance

Molecule: TNFα
lymphocyte binding, Count per Minute (brain endothelial cells): 1430 Count per Minute and 1150 Count per Minute

Molecule: COC(=O)[C@@]1(O)C[C@H]2O[C@]1(C)n1c3ccccc3c3c4c(c5c6ccccc6n2c5c31)C(=O)NC4 [K252a]
reversibility of effect of protein kinase inhibitors [1]: reversible
effect of protein kinase inhibitors on resistance ([1]; 10-200 nM): markedly reduce the resistance
activity at 0.2 µM ([1]; 1 h): 79%
activity at 0.2 µM ([1]; 2.5 h): 25%
activity at 0.2 µM ([1]; 24 h): 24%

Molecule: OC[C@H]1O[C@@](CO)(O[C@H]2O[C@H](CO)[C@@H](O)[C@H](O)[C@H]2O)[C@@H](O)[C@@H]1O [sucrose]
transport across filters with cells (bovine endothelial cells [6]): almost entirely prevented from leaking between the cells
difference in the rate of sucrose across filters with and without cells, previous models (bovine endothelial cells [7]): 3 to 5 fold

Molecule: OC[C@H]1O[C@@H](n2cnc3c(NC4CCCC4)ncnc32)[C@H](O)[C@@H]1O [CPA, cyclopentyladenosine]
increase of uptake by brain of small (sucrose) and large (BSA) molecules (blood-brain barrier [8]): ≤ 300%

Molecule: C[C@H](Cc1ccccc1)Nc1ncnc2c1ncn2[C@@H]1O[C@H](CO)[C@@H](O)[C@H]1O [R-PIA, N^6 -(phenylisopropyl)-adenosine]
increase of uptake by brain of small (sucrose) and large (BSA) molecules (blood-brain barrier [8]): ≤ 300%
